Measurements as given in patent US20250195342A1, “DRY COMPOSITIONS AND METHODS FOR FORMING STABLE LIQUID CLEANSING FORMULATIONS” (Conopco, Inc., d/b/a UNILEVER, priority 2022, published 2025).

Source text: Silver ion solubility, as referred to herein, is a value derived from a solubility product (Ksp) in water at 25 degrees centigrade, a well known parameter that is reported in numerous sources.

SMILES | Silver Ion Solubility [Ag+]
[Br][Ag] [Silver bromide] | Silver bromide 1 5.3 × 10−^13 7.3 × 10″^7 mol/L
[Cl][Ag] [Silver chloride] | 1.3 × 10″^5 mol/L
